Here are results for two compounds from patent US11498949B2, “System and method for high-yield transient expression in mammalian cells” (LIFE TECHNLOLOGIES CORPORATION, priority 2012, dated 2022).

The structures appear in SMILES notation.

For the test, the system named is hIgG expression. The experiment in a line: Expression enhancers in the transient transfection system, hIgG yield. The note with it: enhancer added alone to transient transfection; vs. control with neither Enhancer 1 nor Enhancer 2. The class given is cell-based.

Description: Components were formulated into 2 stable Enhancer solutions.

For the compound `CCCC(CCC)C(=O)O` [Enhancer 1, valproic acid], the “effect on hIgG expression” value is reported as “doubles hIgG expression”. The result for `CCC(=O)[O-].[Na+]` [Enhancer 2, sodium propionate] reads “no strong effect alone”.
